From US20210220340A1, “COMPOSITION FOR PREVENTION OR TREATMENT OF NEURODEGENERATIVE DISEASE” (THE ASAN FOUNDATION, priority 2018, published 2021) come the findings set out here.

One test relates to all PDE isoforms. Description: HTS using all PDE isoforms as targets. Format: biochemical. As to the method: Compounds included in the library of 800 FDA-approved drugs were diluted 1/4 from a concentration of 100 μM and dispensed into each well in 96-well plates, and mixed with a PDE reactant to allow a PDE reaction with the drug for 1 hour at a constant temperature.
The experiment was carried out in the same manner as used in screening of the FDA-approved drug library. […] Each of the screening library drugs were diluted 1/4 from 100 μM and dispensed into each well in 96-well plates, and mixed with a PDE reactant, followed by allowing a reaction between the drug and PDE for 1 hour for storage. After a stop solution was mixed with a AMP detection agent, the mixture was dispensed at 20 μl per well to allow a reaction for 10 minutes, followed by immediately measuring luminescence, and the experiment was performed according to a protocol provided by the kit used herein.
The first selection started with PDE3 as a target, and after candidate drugs were selected, all PDE isoforms were tested.

Another test relates to 5×FAD mice. Description: Morris water maze test (hidden platform test and probe test) in Alzheimer's disease animal model. The format is in vivo, mouse. How it is done: To confirm whether amlexanox (AMX; Z007) is effective even for animal models, an experiment was conducted using 5×FAD mice, which is one of the Alzheimer-type dementia animal models. Here, the 5×FAD mice, which is one of the Alzheimer-type dementia animal models, were provided in Korea and used.
Drug administration and behavioral evaluation were conducted on the same schedule as in FIG. […] Immediately after the end of the administration, a Morris water maze test, which is a behavioral experiment that can evaluate memory and learning ability, was conducted.
The Morris water maze test was performed as described in Behay. Brain Res. (155, 185-196) (refer to Behay. Brain Res., 155, 185-196). A water tank used in the water maze test is a cylindrical tank with a diameter of 90 cm and a height of 60 cm, and filled with water in which milk powder is diluted at 23±2[…] during a test period. In the tank, a transparent platform was installed 1 cm below the water surface, and four signs were placed outside the tank. The motion trajectory of a mouse was analyzed through a video tracking system (Smart3.0, Panlab, USA).
During the trial period, the mice were placed into the water tank at four randomly selected starting points toward the side where the platform was not shown. In each trial, an escape latency, which is the time to find the platform after the mouse is put into the water tank, was recorded, and when finding the platform, the mouse was allowed to stay on the platform for 10 seconds and then moved to a home cage. […] Each trial was performed four times a day for 5 days.
A probe test was conducted on the last […] of the test. After the platform was removed, the test was performed by allowing a mouse to swim in a water tank for 60 seconds and recording the time to first enter the location of the platform and how many times the mouse passed the location.

For the next test, the system named is G93A SOD-1. Description: G93A SOD-1 accumulation on AMX treatment (western blotting). The format is cell-based. How it is done: (§1) Each type of cell was cultured under the culture conditions, a cell culture was restored, followed by preparing a particulate fraction in a 50 mM Tris buffer. Proteins obtained from the cell culture developed in a SDS polyacrylamide gel, transferred to an immobilon-P membrane (Millipore, USA), and reacted with antibodies overnight. Next day, western blots were washed, reacted with peroxidase-linked secondary antibodies at room temperature for 1 hour, followed by staining bands with 4-chloro-1-naphthol.
(§2) FIG. 16 is a graph representing the percent activity (% activity) according to the concentrations of finally selected amlexanox (AMX) for various PDE isoforms, and FIGS. 17 and 18 show western blotting images representing the amyloid beta expression pattern and G93A SOD-1 and P301L tau expression when amyloid beta-accumulated pericytes and astrocytes are treated with the finally selected amlexanox (AMX).
(In general: Immunoblotting shows a protein as a band on a membrane.)

The next test has as its system P301L tau. The experiment in a line: Tau accumulation on AMX treatment (western blotting). Format: cell-based. How it is done: as §1, §2
The test system of a further test is cathepsin L. The experiment in a line: Lysosomal function activity in astrocytes: degree of hydrolysis of cathepsin L. The format is cell-based, mouse. To be noted: bafilomycin A1-treated mouse astrocytes. As to the method: Samples stained with enzymatic dyes such as cathepsin B and cathepsin L were administered into the cell culture to allow a reaction for 30 minutes, and changes in activity of lysosomes in cells were confirmed using a confocal microscope.
Astrocytes were stained with a fluorescence-tagged lysosomal protein, and the degrees of hydrolysis of cathepsin B and cathepsin L, which are lysosomal proteins, were analyzed.
FIG. 21 is a set of time-dependent confocal microscope images of mouse astrocytes, which are treated with bafilomycin A1, which is a vATPase inhibitor, to assess the degree of hydrolysis of cathepsin B (top) and cathepsin L (bottom).

Setting [1] is: 1 mg/kg and 2.5 mg/kg intraperitoneal, compared with Veh group.

Regarding `CC(C)c1ccc2oc3nc(N)c(C(=O)O)cc3c(=O)c2c1` [amlexanox, 2-amino-7-isopropyl-5-oxo-5H-[1]benzopyrano[2,3-b] pyridine-3-carboxylic acid], in the test on all PDE isoforms, the “reducing efficacy for all PDE isoforms” value is reported as “excellent reducing efficacy”. In addition, in the test on 5×FAD mice (setting [1]), the “number of passing the target point” value is “increases” and the “time to find the target point” value was “increase”. Moreover, the “memory and learning ability” value in the test on 5×FAD mice (AMX-administered) is given as “improved”. In addition, the “accumulation of toxic protein G93A SOD-1” value in the test with G93A SOD-1 was “reduced”. Besides, the “accumulation of toxic protein Tau” value with P301L tau is listed as “reduced”. Besides, in the test with cathepsin L, the “time to restore lysosomal activity of cathepsin L to the original state” value is no more than 60 min.
